Patent US8865724B2, “Preparation of 2-methyl-4-amino-5(substituted-1H-1,2,3-triazolyl)methylpyrimidine derivatives and microbicidal activity thereof” (Central China Normal University, priority 2011, dated 2014)

Test system: not given
Assay: not given
Conditions: not given

Compound | melting point [°C]
Cc1ccc(OCc2cn(Cc3cnc(C)nc3N)nn2)cc1 [Compound 17] | 157 to 158
Cc1ncc(Cn2cc(COc3ccccc3C)nn2)c(N)n1 [Compound 18] | 153 to 154
Cc1cccc(OCc2cn(Cc3cnc(C)nc3N)nn2)c1 [Compound 19] | 58 to 59
Cc1ncc(Cn2cc(COc3ccc(F)cc3)nn2)c(N)n1 [Compound 20] | 178 to 179
Cc1ncc(Cn2cc(COc3ccc(Br)cc3)nn2)c(N)n1 [Compound 21] | 167 to 168
Cc1ncc(Cn2cc(COc3ccc(C#N)cc3)nn2)c(N)n1 [Compound 22] | 185 to 186
Cc1ncc(Cn2nnc(COc3ccc([N+](=O)[O-])cc3Cl)c2I)c(N)n1 [Compound 30] | 223 to 225
Cc1ncc(Cn2cc(COC(=O)c3ccccc3Br)nn2)c(N)n1 [Compound 40] | 174 to 176
Cc1ncc(Cn2cc(COC(=O)c3cccc([N+](=O)[O-])c3)nn2)c(N)n1 [Compound 41] | 159 to 160
Cc1ncc(Cn2cc(COC(=O)c3ccc([N+](=O)[O-])cc3Cl)nn2)c(N)n1 [Compound 42] | 129 to 130
Cc1ncc(Cn2cc(CNC(=O)c3ccc(F)cc3)nn2)c(N)n1 [Compound 44] | 211 to 212
Cc1ccc(C(=O)NCc2cn(Cc3cnc(C)nc3N)nn2)cc1 [Compound 45] | 132 to 133
Cc1ncc(Cn2cc(CNC(=O)c3ccccc3F)nn2)c(N)n1 [Compound 46] | 205 to 206
Cc1ncc(Cn2cc(CNC(=O)c3ccc([N+](=O)[O-])cc3)nn2)c(N)n1 [Compound 47] | 239 to 240
Cc1ncc(Cn2cc(CNC(=O)c3ccc(Cl)cc3)nn2)c(N)n1 [Compound 48] | 165 to 167
Cc1ncc(Cn2cc(CNC(=O)c3ccccc3Cl)nn2)c(N)n1 [Compound 49] | 217 to 218
Cc1ncc(Cn2cc(CNC(=O)c3cccc(Cl)c3)nn2)c(N)n1 [Compound 50] | 213 to 214
Cc1ncc(Cn2cc(CNC(=O)c3ccc([N+](=O)[O-])cc3Cl)nn2)c(N)n1 [Compound 51] | > 260
Cc1ncc(Cn2cc(CNC(=O)c3ccccc3Br)nn2)c(N)n1 [Compound 52] | 233 to 234
Cc1ncc(Cn2cc(CNC(=O)c3cccc([N+](=O)[O-])c3)nn2)c(N)n1 [Compound 53] | 188 to 189
Cc1ncc(Cn2cc(COC(=O)COc3ccc(Cl)c(C)c3)nn2)c(N)n1 [Compound 55] | 163 to 165
Cc1ncc(Cn2cc(COC(=O)COc3ccc(Cl)cc3)nn2)c(N)n1 [Compound 56] | 152 to 153
Cc1ccc(OCC(=O)OCc2cn(Cc3cnc(C)nc3N)nn2)cc1 [Compound 57] | 149 to 151

Compound | melting point [°C]
COc1ccc(OCC(=O)OCc2cn(Cc3cnc(C)nc3N)nn2)cc1 [Compound 58] | 128 to 129
Cc1ncc(Cn2cc(COC(=O)COc3ccc(Cl)cc3C)nn2)c(N)n1 [Compound 59] | 138 to 140
Cc1ncc(Cn2cc(COC(=O)COc3ccc(F)cc3Cl)nn2)c(N)n1 [Compound 60] | 144 to 146
Cc1ncc(Cn2cc(COC(=O)COc3ccc(C(C)(C)C)cc3)nn2)c(N)n1 [Compound 61] | 107 to 110
Cc1ncc(Cn2cc(COC(=O)COc3cccc(C(F)(F)F)c3)nn2)c(N)n1 [Compound 62] | 138 to 140
Cc1ncc(Cn2cc(COC(=O)COc3cccc(C)c3C)nn2)c(N)n1 [Compound 63] | 168 to 171
Cc1ncc(Cn2cc(COC(=O)COc3cc(Cl)c(Cl)c(Cl)c3)nn2)c(N)n1 [Compound 64] | 160 to 161
Cc1ncc(Cn2cc(COC(=O)COc3ccccc3[N+](=O)[O-])nn2)c(N)n1 [Compound 65] | 158 to 160
Cc1ncc(Cn2cc(COC(=O)COc3ccc([N+](=O)[O-])cc3)nn2)c(N)n1 [Compound 66] | 145 to 148
Cc1ncc(Cn2cc(COC(=O)COc3ccc([N+](=O)[O-])cc3Cl)nn2)c(N)n1 [Compound 67] | 145 to 148
Cc1ncc(Cn2cc(CNC(=O)COc3ccccc3Cl)nn2)c(N)n1 [Compound 69] | 201 to 202
Cc1ccc(OCC(=O)NCc2cn(Cc3cnc(C)nc3N)nn2)cc1 [Compound 70] | 117 to 119
Cc1ncc(Cn2cc(CNC(=O)COc3ccc(Cl)cc3)nn2)c(N)n1 [Compound 71] | 124 to 125
Cc1ncc(Cn2cc(CNC(=O)COc3ccc([N+](=O)[O-])cc3Cl)nn2)c(N)n1 [Compound 72] | 183 to 184
Cc1ncc(Cn2cc(CNC(=O)COc3ccc([N+](=O)[O-])cc3)nn2)c(N)n1 [Compound 73] | 143 to 144
Cc1ncc(Cn2cc(CNC(=O)COc3ccc(Br)cc3)nn2)c(N)n1 [Compound 74] | 105 to 106
COc1ccc(OCC(=O)NCc2cn(Cc3cnc(C)nc3N)nn2)cc1 [Compound 75] | 165 to 166
Cc1ncc(Cn2cc(CNC(=O)COc3cccc(C)c3C)nn2)c(N)n1 [Compound 77] | 169 to 170
Cc1ncc(Cn2cc(CNC(=O)COc3ccccc3)nn2)c(N)n1 [Compound 78] | 168 to 169
Cc1ncc(Cn2cc(CNC(=O)COc3ccc(F)cc3Cl)nn2)c(N)n1 [Compound 79] | 125 to 126
Cc1ncc(Cn2nnc(COc3ccccc3[N+](=O)[O-])c2I)c(N)n1 [Compound 80] | 178 to 180
Cc1ncc(Cn2nnc(COc3cccc(C(F)(F)F)c3)c2I)c(N)n1 [Compound 81] | 146 to 148
Cc1ncc(Cn2nnc(COc3ccc(Cl)cc3Cl)c2I)c(N)n1 [Compound 83] | 176 to 177

Compound | melting point [°C]
Cc1ncc(Cn2nnc(COc3ccccc3Br)c2I)c(N)n1 [Compound 85] | 145 to 147
CCOC(=O)c1ccc(OCc2nnn(Cc3cnc(C)nc3N)c2I)cc1 [Compound 87] | 146 to 147
Cc1ncc(Cn2nnc(COC(=O)c3ccccc3Cl)c2I)c(N)n1 [Compound 89] | 185 to 187
Cc1ncc(Cn2nnc(COC(=O)c3cccc(Cl)c3)c2I)c(N)n1 [Compound 90] | 185 to 187
Cc1ncc(Cn2nnc(COC(=O)c3ccc(Cl)cc3)c2I)c(N)n1 [Compound 91] | 192 to 193
Cc1ccc(C(=O)OCc2nnn(Cc3cnc(C)nc3N)c2I)cc1 [Compound 92] | 200 to 201
Cc1ncc(Cn2nnc(COC(=O)c3ccccc3F)c2I)c(N)n1 [Compound 93] | 187 to 188
Cc1ncc(Cn2nnc(COC(=O)c3ccc(F)cc3)c2I)c(N)n1 [Compound 94] | 207 to 209
Cc1ncc(Cn2nnc(COC(=O)c3ccc([N+](=O)[O-])cc3)c2I)c(N)n1 [Compound 95] | 192 to 193
Cc1ncc(Cn2nnc(COC(=O)c3ccc([N+](=O)[O-])cc3Cl)c2I)c(N)n1 [Compound 96] | 183 to 184
Cc1ncc(Cn2nnc(COC(=O)c3cccc([N+](=O)[O-])c3)c2I)c(N)n1 [Compound 97] | 201 to 202
Cc1ncc(Cn2nnc(COC(=O)c3ccccc3Br)c2I)c(N)n1 [Compound 98] | 200 to 202
Cc1ncc(Cn2nnc(CNC(=O)c3cccc(Cl)c3)c2I)c(N)n1 [Compound 99] | 197 to 198
Cc1ncc(Cn2nnc(CNC(=O)c3ccccc3Cl)c2I)c(N)n1 [Compound 100] | 186 to 188
Cc1ncc(Cn2nnc(CNC(=O)c3ccc([N+](=O)[O-])cc3)c2I)c(N)n1 [Compound 101] | 223 to 224
Cc1ncc(Cn2nnc(CNC(=O)c3ccccc3)c2I)c(N)n1 [Compound 102] | 218 to 220
Cc1ncc(Cn2nnc(CNC(=O)c3ccc(Cl)cc3)c2I)c(N)n1 [Compound 103] | 231 to 233
Cc1ncc(Cn2nnc(CNC(=O)c3ccc(F)cc3)c2I)c(N)n1 [Compound 104] | 217 to 219
Cc1ncc(Cn2nnc(CNC(=O)c3ccccc3F)c2I)c(N)n1 [Compound 105] | 204 to 206
Cc1ccc(C(=O)NCc2nnn(Cc3cnc(C)nc3N)c2I)cc1 [Compound 106] | 180 to 182
Cc1ncc(Cn2nnc(CNC(=O)c3ccc([N+](=O)[O-])cc3Cl)c2I)c(N)n1 [Compound 107] | 183 to 184
Cc1ncc(Cn2nnc(CNC(=O)c3cccc([N+](=O)[O-])c3)c2I)c(N)n1 [Compound 108] | 202 to 204
Cc1ncc(Cn2nnc(CNC(=O)c3ccccc3Br)c2I)c(N)n1 [Compound 109] | 200 to 202

Test system: Corynespora Leaf Spot of Cucumber
Assay: Microbicidal activity on cucumber seedlings, spray then spore inoculation (Embodiment 8)
Conditions: Corynespora, in Cucumis sativus, read-out: Corynespora Leaf Spot of Cucumber Average inhibition rate (%)

Compound | pest or weed control at 500 µg/g [%]
COc1ccc(C(=CC(=O)N2CCOCC2)c2ccc(Cl)cc2)cc1OC [Dimethomorph, reference compound] | 70
COC(=O)NC(=S)Nc1ccccc1NC(=S)NC(=O)OC [Thiophanate-methyl, reference compound] | 80

Same assay, conditions: testing concentration of 500 μg/g

Compound | Corynespora Leaf Spot of Cucumber Average inhibition rate (%)
jingangmycin [reference compound] | 70

Test system: Downy Mildew of Cucumber
Assay: as above
Conditions: Cucumis sativus, read-out: Downy Mildew of Cucumber Average inhibition rate (%)

Compound | pest or weed control at 500 µg/g [%]
COc1ccc(C(=CC(=O)N2CCOCC2)c2ccc(Cl)cc2)cc1OC [Dimethomorph, reference compound] | 90
COC(=O)NC(=S)Nc1ccccc1NC(=S)NC(=O)OC [Thiophanate-methyl, reference compound] | 20

Same assay, conditions: testing concentration of 500 μg/g

Compound | Downy Mildew of Cucumber Average inhibition rate (%)
jingangmycin [reference compound] | 70

Test system: Rice Sheath Blight Disease
Assay: Microbicidal activity, spray then strip inoculation (Embodiment 8)
Conditions: Oryza sativa, read-out: Rice Sheath Blight Disease Average inhibition rate (%)

Compound | pest or weed control at 500 µg/g [%]
COc1ccc(C(=CC(=O)N2CCOCC2)c2ccc(Cl)cc2)cc1OC [Dimethomorph, reference compound] | 90
COC(=O)NC(=S)Nc1ccccc1NC(=S)NC(=O)OC [Thiophanate-methyl, reference compound] | 85

Same assay, conditions: testing concentration of 500 μg/g

Compound | Rice Sheath Blight Disease Average inhibition rate (%)
jingangmycin [reference compound] | 70
